According to US4396613A, “23-Ester derivatives of DMT and method of using same” (Eli Lilly and Company, priority 1981, dated 1983):
≈ marks a conversion by molar mass, not a printed value.

Tests used:
[1] = test system: Staphylococcus aureus V41; test: standard agar-dilution assay (MIC); assay type: cell-based; conditions: Staphylococcus aureus V41, penicillin-resistant strain, unit assumed
Description: (§1) The MIC's in Table II were determined by standard agar-dilution assays. The MIC's in Table III were obtained using a conventional broth-dilution microtiter test.
^b Penicillinresistant strain

[2] = test system: Staphylococcus aureus X400; test: standard agar-dilution assay (MIC); assay type: cell-based; conditions: Staphylococcus aureus X400, methicillin-resistant strain, unit assumed
Description: as §1
^c Methicillinresistant-strain

[3] = test system: Haemophilus influenzae Holt; test: standard agar-dilution assay (MIC); assay type: cell-based; conditions: ampicillin-sensitive strain, unit assumed
Description: as §1

[4] = test system: Haemophilus influenzae R252; test: standard agar-dilution assay (MIC); assay type: cell-based; conditions: Haemophilus influenzae R252, ampicillin-resistant strain, unit assumed
Description: as §1

[5] = test system: Staphylococcus aureus S13E; test: standard agar-dilution assay (MIC); assay type: cell-based; conditions: unit assumed
Description: as §1

[6] = test system: Staphylococcus aureus X1.1; test: standard agar-dilution assay (MIC); assay type: cell-based; conditions: unit assumed
Description: as §1

[7] = test system: Staphylococcus epidermidis EPI1; test: standard agar-dilution assay (MIC); assay type: cell-based; conditions: unit assumed
Description: as §1

[8] = test system: Staphylococcus epidermidis EPI2; test: standard agar-dilution assay (MIC); assay type: cell-based; conditions: unit assumed
Description: as §1

[9] = test system: Streptococcus Group 9960; test: standard agar-dilution assay (MIC); assay type: cell-based; conditions: unit assumed
Description: as §1

[10] = test system: Streptococcus Group D X66; test: standard agar-dilution assay (MIC); assay type: cell-based; conditions: unit assumed
Description: as §1

[11] = test system: Streptococcus pyogenes C203; test: standard agar-dilution assay (MIC); assay type: cell-based; conditions: unit assumed
Description: as §1

[12] = test system: Streptococcus pneumoniae Park I; assay type: cell-based; conditions: agar dilution, unit assumed
Description: as §1

[13] = test system: Mycoplasma gallisepticum; test: conventional broth-dilution microtiter test (MIC); assay type: cell-based; conditions: unit assumed
Description: as §1

[14] = test system: Mycoplasma hyorhinis; test: conventional broth-dilution microtiter test (MIC); assay type: cell-based; conditions: unit assumed
Description: as §1

[15] = test system: Pasteurella multocida 17E; test: conventional broth-dilution microtiter test (MIC); assay type: cell-based; conditions: bovine isolate, unit assumed
Description: as §1

[16] = test system: Pasteurella multocida 60A; test: conventional broth-dilution microtiter test (MIC); assay type: cell-based; conditions: avian isolate, unit assumed
Description: as §1

[17] = test system: Staphylococcus aureus; test: conventional broth-dilution microtiter test (MIC); assay type: cell-based; conditions: unit assumed
Description: as §1

[18] = test system: Streptococcus sp. 80; test: conventional broth-dilution microtiter test (MIC); assay type: cell-based; conditions: unit assumed
Description: as §1

[19] = test system: Streptococcus pyogenes C203; test: experimental infection in mice (ED50); assay type: in vivo; conditions: doses given 1 and 4 hours postinfection
Description: The 23-ester derivatives of DMT of this invention have shown in vivo antimicrobial activity against experimental bacterial infections caused by gram-positive bacteria. When two doses of test compound were admininstered to mice with experimental infections, the activity observed was measured as an ED50 value [effective dose in mg/kg to protect 50% of the test animals: see Warren Wick, et al., J. Bacteriol. 81, 233-235 (1961)].
^a mg/kg × 2; doses given 1 and 4 hours postinfection

[20] = test system: Mycoplasma synoviae; test: conventional broth-dilution microtiter test (MIC); assay type: cell-based; conditions: unit assumed
Description: as §1

Q: How did the MIC [1] turn out when `CCC1OC(=O)CC(O)C(C)C(OC2OC(C)C(OC3CC(C)(O)C(O)C(C)O3)C(N(C)C)C2OC(C)=O)C(CC=O)CC(C)C(=O)C=CC(C)=CC1COC(C)=O` (stereo not shown) [Compound 1, 2',23-Di-O-Acetyl-DMT] was run?
A: The MIC was 1 µg/mL (≈ 1.21 µM).

Q: What about the MIC [2] of the same compound?
A: The MIC was 2 µg/mL (≈ 2.42 µM).

Q: What about the MIC [3] of the same compound?
A: Its MIC is 16 µg/mL (≈ 19.4 µM).

Q: What about the MIC [4] of the same compound?
A: Its MIC is 16 µg/mL (≈ 19.4 µM).

Q: And the MIC [5]?
A: Its MIC is 2 µg/mL (≈ 2.42 µM).

Q: What about the MIC [6] of the same compound?
A: Its MIC is 1 µg/mL (≈ 1.21 µM).

Q: What about the MIC [7] of the same compound?
A: Its MIC is 2 µg/mL (≈ 2.42 µM).

Q: And the MIC [8]?
A: The MIC was 2 µg/mL (≈ 2.42 µM).

Q: And the MIC [9]?
A: Its MIC is 1 µg/mL (≈ 1.21 µM).

Q: What about the MIC [10] of the same compound?
A: Its MIC is 2 µg/mL (≈ 2.42 µM).

Q: What about the MIC [11] of the same compound?
A: The MIC was 1 µg/mL (≈ 1.21 µM).

Q: What about the MIC [12] of the same compound?
A: The MIC was 0.25 µg/mL (≈ 0.303 µM).

Q: What about the MIC [13] of the same compound?
A: Its MIC is 0.39 µg/mL (≈ 0.472 µM).

Q: And the MIC [14]?
A: Its MIC is 3.12 µg/mL (≈ 3.78 µM).

Q: And the MIC [15]?
A: Its MIC is 6.25 µg/mL (≈ 7.57 µM).

Q: What about the MIC [16] of the same compound?
A: The MIC was 12.5 µg/mL (≈ 15.1 µM).

Q: And the MIC [17]?
A: The MIC was 0.78 µg/mL (≈ 0.944 µM).

Q: And the MIC [18]?
A: Its MIC is 0.78 µg/mL (≈ 0.944 µM).

Q: And the ED50 ([19]; C203, oral)?
A: Its ED50 is 212 mg/kg.

Q: What about the ED50 ([19]; C203, sc, subcutaneous) of the same compound?
A: Its ED50 is > 20 mg/kg.

Q: `CCC(=O)OCC1C=C(C)C=CC(=O)C(C)CC(CC=O)C(OC2OC(C)C(OC3CC(C)(O)C(O)C(C)O3)C(N(C)C)C2OC(=O)CC)C(C)C(O)CC(=O)OC1CC` (stereo not shown) [Compound 3, 2',23-Di-O-Propionyl-DMT] was tested. Which MIC [1] did it give?
A: The MIC was 0.5 µg/mL (≈ 0.585 µM).

Q: And the MIC [2]?
A: The MIC was 2 µg/mL (≈ 2.34 µM).

Q: And the MIC [3]?
A: Its MIC is 16 µg/mL (≈ 18.7 µM).

Q: And the MIC [4]?
A: Its MIC is 16 µg/mL (≈ 18.7 µM).

Q: And the MIC [5]?
A: The MIC was 1 µg/mL (≈ 1.17 µM).

Q: What about the MIC [6] of the same compound?
A: The MIC was 0.5 µg/mL (≈ 0.585 µM).

Q: And the MIC [7]?
A: Its MIC is 0.5 µg/mL (≈ 0.585 µM).

Q: What about the MIC [8] of the same compound?
A: Its MIC is 1 µg/mL (≈ 1.17 µM).

Q: And the MIC [9]?
A: The MIC was 1 µg/mL (≈ 1.17 µM).

Q: What about the MIC [10] of the same compound?
A: The MIC was 1 µg/mL (≈ 1.17 µM).

Q: What about the MIC [11] of the same compound?
A: Its MIC is 0.5 µg/mL (≈ 0.585 µM).

Q: And the MIC [12]?
A: The MIC was 0.5 µg/mL (≈ 0.585 µM).

Q: And the MIC [13]?
A: The MIC was 0.78 µg/mL (≈ 0.913 µM).

Q: What about the MIC [14] of the same compound?
A: Its MIC is 1.56 µg/mL (≈ 1.83 µM).

Q: And the MIC [20]?
A: Its MIC is 0.195 µg/mL (≈ 0.228 µM).

Q: What about the MIC [15] of the same compound?
A: The MIC was 6.25 µg/mL (≈ 7.32 µM).

Q: What about the MIC [16] of the same compound?
A: Its MIC is 12.5 µg/mL (≈ 14.6 µM).

Q: What about the MIC [17] of the same compound?
A: The MIC was 0.78 µg/mL (≈ 0.913 µM).

Q: What about the MIC [18] of the same compound?
A: The MIC was 0.78 µg/mL (≈ 0.913 µM).

Q: And the ED50 ([19]; C203, oral)?
A: The ED50 was 117 mg/kg.

Q: And the ED50 ([19]; C203, sc, subcutaneous)?
A: The ED50 was > 20 mg/kg.

Q: What does the source list for `CCC1OC(=O)CC(O)C(C)C(OC2OC(C)C(OC3CC(C)(O)C(O)C(C)O3)C(N(C)C)C2O)C(CC=O)CC(C)C(=O)C=CC(C)=CC1COC(=O)OC` (stereo not shown) [Compound 25]?
A: MIC [1]: 0.5 µg/mL (≈ 0.625 µM); MIC [2]: 0.5 µg/mL (≈ 0.625 µM); MIC [3]: 8 µg/mL (≈ 10 µM); MIC [4]: 8 µg/mL (≈ 10 µM); MIC [5]: 0.25 µg/mL (≈ 0.313 µM); MIC [6]: 0.25 µg/mL (≈ 0.313 µM); MIC [7]: 0.5 µg/mL (≈ 0.625 µM); MIC [9]: 0.5 µg/mL (≈ 0.625 µM); MIC [10]: 0.5 µg/mL (≈ 0.625 µM); MIC [11]: 0.25 µg/mL (≈ 0.313 µM); MIC [12]: 0.06 µg/mL (≈ 0.075 µM); MIC [13]: 0.097 µg/mL (≈ 0.121 µM); MIC [14]: 1.56 µg/mL (≈ 1.95 µM); MIC [20]: 0.097 µg/mL (≈ 0.121 µM); MIC [15]: 6.25 µg/mL (≈ 7.81 µM); MIC [16]: 12.5 µg/mL (≈ 15.6 µM); MIC [17]: 1.56 µg/mL (≈ 1.95 µM); MIC [18]: 0.78 µg/mL (≈ 0.975 µM); ED50 ([19]; C203, oral): > 100 mg/kg; ED50 ([19]; C203, sc, subcutaneous): 7.6 mg/kg
